Test results reported in PubChem BioAssay (NCI).
“And” between values parts separate entries of the source, which are not always exact repeats. Identical values can stand only once.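 Method: 48-hour compound exposure of cells in 96-well plates, five concentrations, linear interpolation of endpoints. GI50: concentration for 50% inhibition of growth. TGI is the concentration that stops growth completely.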

What was measured:
Assay in all cases: growth of human tumour cells (NCI), 48 h
[1] = system: NCI/ADR-RES ovarian
[2] = system: OVCAR-4 ovarian
[3] = system: UO-31 renal
[4] = system: SN12C renal
[5] = system: SW-620 colon
[6] = system: 786-0 renal
[7] = system: LOX IMVI melanoma
[8] = system: T-47D breast
[9] = system: IGROV1 ovarian
[10] = system: HS 578T breast

SMILES	GI50 [1] [µM]	TGI [1] [µM]	GI50 [2] [µM]	TGI [2] [µM]	GI50 [3] [µM]	TGI [3] [µM]	GI50 [4] [µM]	TGI [4]	TGI [5] [µM]	GI50 [6] [µM]	TGI [6] [µM]	GI50 [7] [nM]	TGI [7] [µM]	GI50 [8] [nM]	TGI [8] [µM]	GI50 [9] [µM]	TGI [9] [µM]	GI50 [10] [µM]	TGI [10] [µM]	GI50 [5] [nM]
COc1ccc2c(c1)/C(=C\c1c(-c3ccccc3)nc3sccn13)C(=O)N2	1.09	3.27	15.6	> 96.8	7.29	> 43.7	9.57	> 26.6 µM	> 49.6	9.01	31.2	6090	22.2	8330	30.9	13.9	52.3	–	–	–
CC(=O)O[C@H]1CC[C@@]2(C)C(=CC[C@H]3C(CC#N)[C@@](C)(C#N)CCC32)C1 (some centres undefined)	–	–	–	> 100	–	> 100	–	> 100 µM	> 100	–	> 100	–	> 100	–	–	–	> 100	–	–	–
COc1ccc(OC)c(-c2cc(-c3ccc(Cl)cc3)nn2-c2ccccc2)c1	15.8	60.9	–	–	> 100	> 100	23.9	69.6 µM	78.4	17.3	57.7	–	–	–	–	59.5	> 100	18.5	> 100	17000
CCOC(=O)NC(=O)c1cn(C2CCCCC2)c(=O)n(C)c1=O	–	–	–	> 100	–	> 100	–	> 100 µM	> 100	–	> 100	–	> 100	–	–	–	> 100	–	–	–
CC(=O)CCc1ccc(Oc2c3ccccc3nc3occc23)cc1	15.4	45.6	37.6	> 100	22.9	> 100	26.7	96.5 µM	–	18.5	45.2	14800	41.8	2300	22.6	33.9	> 100	20.4	44.5	–
CC(=O)OC1CC2C(C)(C)C(=O)C=C[C@]2(C)C2CCC3(C)C(c4ccoc4)C(=O)C4OC43[C@]12C (some centres undefined)	–	–	–	58.9	–	37.6	–	30.7 µM	42	–	69.3	–	25.9	–	–	–	47.5	–	–	–
COC(=O)CCCCCOS(=O)(=O)c1ccc(C)cc1	–	–	–	–	–	> 100	–	> 100 µM	> 100	–	> 100	–	> 100	–	–	–	> 100	–	–	–
Nc1ccc(C(=O)CC2(O)C(=O)Nc3ccccc32)cc1 (centres undefined)	–	–	–	> 100	–	> 100	–	> 100 µM	> 100	–	> 100	–	> 100	–	–	–	> 100	–	–	–
COc1cccc(/C=C2\N=C(Cl)OC2=O)c1O	–	–	–	> 100	–	> 100	–	> 100 µM	> 100	–	> 100	–	> 100	–	–	–	> 100	–	–	–
Cc1cccc2c(=O)c3c(sc12)c(NCCCN)nc1ccccc13	–	–	1.58	3.25	1.06	2.29	1.47	2.93 µM	2.66	1.69	3.28	1460	2.98	1500	3.44	1.18	2.63	–	–	1190
COc1cc(/C=C2\C[C@H]3[C@@H]4CC=C5C[C@@H](O)CC[C@]5(C)[C@H]4CC[C@]3(C)[C@H]2O)ccc1OCCN1CCCCC1	1.46	4.66	–	–	1.18	–	0.813	1.75 µM	–	0.47	1.18	589	1.34	2050	16.2	2.35	> 26.3	1.44	> 10.7	760
CC1CCCc2c1n[nH]c2CC1CC(=O)NC(=O)C1 (centres undefined)	–	–	–	> 100	–	> 100	–	> 100 µM	> 100	–	> 100	–	> 100	–	–	–	> 100	–	–	–
CCCC[C@H](CCc1ccccc1)N(C(=O)OC)N1CCC[C@H]1COC	–	–	–	39.9	–	35.4	–	32.7 µM	29.8	–	45.2	–	34.9	–	–	–	56.8	–	–	–
NC1=C(O)/C(=N/NS(=O)(=O)c2ccccc2)C(c2ccc3c(c2)OCO3)O1 (centres undefined)	–	–	–	> 100	–	> 100	–	> 100 µM	> 100	–	> 100	–	> 100	–	–	–	> 100	–	–	–
O=[N+]([O-])c1cc(I)cc(/C=N/NS(=O)(=O)c2ccc(F)cc2)c1O	–	–	–	> 100	–	61	–	54.1 µM	> 100	–	82.9	–	57.4	–	–	–	95.7	–	–	–
CC(C)(C)c1cc[n+](C[n+]2ccc(C(C)(C)C)cc2)cc1	–	> 100	–	> 100	–	> 100	–	> 100 µM	> 100	–	> 100	–	–	–	> 100	–	> 100	–	> 100	–
C[N+]1(CCNP(=S)(NCC[N+]2(C)Cc3c(ccc4c3OCO4)C3C2c2cc4c(cc2C[C@@H]3O)OCO4)NCC[N+]2(C)Cc3c(ccc4c3OCO4)C3C2c2cc4c(cc2C[C@@H]3O)OCO4)Cc2c(ccc3c2OCO3)C2C1c1cc3c(cc1C[C@H]2O)OCO3 (some centres undefined)	–	–	4.74	–	4.3	–	3.84	–	–	5.22	–	1920	–	–	–	4.9	–	–	–	1400
Cn1c(=O)nc2n(-c3ccc(F)c(F)c3)c3ccccc3nc-2c1=O	–	–	–	21.1	–	> 100	–	53.8 µM	20.3	–	> 100	–	–	–	–	–	41.4	–	–	–
CC1=NC(C)=C(/C(C)=N/NC(=O)c2ccccc2O)C(C)/C1=C(/C)NNC(=O)c1ccccc1O (centres undefined)	–	–	–	48.4	–	43.1	–	> 100 µM	> 100	–	44.3	–	51.7	–	–	–	33	–	–	–
CCCCCCCCCCNC(=S)OC	–	–	–	> 100	–	85.8	–	> 100 µM	> 100	–	> 100	–	39.6	–	–	–	> 100	–	–	–
CSc1nc2c(nc(N)n2C2OC(CO)C(O)C(O)C2O)c(=O)[nH]1 (centres undefined)	–	–	–	> 100	–	> 100	–	> 100 µM	> 100	–	> 100	–	> 100	–	–	–	> 100	–	–	–

SMILES	GI50 [1] [µM]	TGI [1] [µM]	GI50 [2] [µM]	TGI [2] [µM]	GI50 [3] [µM]	TGI [3] [µM]	GI50 [4] [µM]	TGI [4]	TGI [5] [µM]	GI50 [6] [µM]	TGI [6] [µM]	GI50 [7] [nM]	TGI [7] [µM]	GI50 [8] [nM]	TGI [8] [µM]	GI50 [9] [µM]	TGI [9] [µM]	GI50 [10] [µM]	TGI [10] [µM]	GI50 [5] [nM]
CC[C@H](C)[C@H](NC(=O)c1ncccn1)C(=O)N(C)[C@H](C[C@@H](OC(C)=O)c1nc(C(=O)N[C@@H](Cc2ccccc2)C[C@H](C)C(=O)OC)cs1)C(C)C	11.7	> 25	4.42	> 25	6.01	> 25	2.81	> 25 µM	> 25	1.72	> 25	1460	> 25	–	–	1.38	> 25	1.25	> 25	896
CN1C(c2ccccc2)CC(=NO)CC1c1ccccc1 (centres undefined)	48.8	–	–	> 100	–	> 100	30.6	58.9 µM and 97.1 µM	> 100	95.7	> 100	–	40.7	46400	–	–	> 100	–	–	43000
Clc1ccc(-c2nnc(-c3nn(-c4ccccc4)c4nc5ccccc5nc34)o2)cc1	–	–	–	> 100	–	> 100	–	> 100 µM	> 100	–	> 100	–	> 100	–	–	–	> 100	–	–	–
Cn1nc(-c2ccccc2)c2c(/C=C/c3ccc(F)cc3)onc2c1=O	–	–	–	–	–	> 100	–	> 100 µM	> 100	–	> 100	–	> 100	–	–	–	> 100	–	–	–
CC(=O)N(N=O)c1ccc(N(N=O)C(C)=O)cc1	–	–	–	> 100	–	> 100	–	> 100 µM	> 100	–	> 100	–	> 100	–	–	–	> 100	–	–	–
NCCCNCc1c2ccccc2c(CNCCCN)c2ccccc12	–	–	–	26.5	–	> 100	–	18.5 µM	26	–	36.2	–	–	–	–	–	> 100	–	–	–
C/C(COc1ccc2oc(-c3ccccc3)cc(=O)c2c1)=N\O	36	> 100	> 100	> 100	11.2	> 100	24	> 100 µM	> 100	9.05	> 100	1380	3.34	16200	> 100	43.8	> 100	–	–	26200
FC(F)(F)c1cccc(Oc2ccc(Nc3ncnc4ccc(OCCCN5CCOCC5)cc34)cc2Cl)c1	2.82	13.8	2.52	12.7	1.19	2.5	2.2	11.8 µM	3.23	1.51	3.11	1710	3.45	1290	6.35	1.01	3.16	–	–	1690
C/C(=N\NC(=O)c1ccccc1O)c1c(O)cc(C)oc1=O	–	–	–	> 100	–	> 100	–	> 100 µM	> 100	–	> 100	–	> 100	–	–	–	> 100	–	–	–
COc1nc(NC2OC(COC(C)=O)C(OC(C)=O)C(OC(C)=O)C2OC(C)=O)c(N=C(C)C(C)=O)c(=O)n1C (centres undefined)	–	–	–	> 100	–	> 100	–	> 100 µM	> 100	–	> 100	–	> 100	–	–	–	> 100	–	–	–
O=C(N/C(=C\c1cccc([N+](=O)[O-])c1)c1nc2c3c(ccc2[nH]1)C(=O)c1ccccc1C3=O)c1ccccc1	–	–	–	–	–	> 100	–	> 100 µM	> 100	–	> 100	–	–	–	–	–	–	–	–	–
COc1cccc(C2SC(C)C(=O)N2NC(=O)C(O)c2ccccc2)c1 (centres undefined)	–	–	41.7	> 100	> 100	> 100	> 100	> 100 µM	> 100	> 100	> 100	> 100000	> 100	> 100000	> 100	> 100	> 100	> 100	> 100	> 100000
C=CCN=C1NC(=O)C(CC(=O)Nc2cccc(Cl)c2)S1 (centres undefined)	–	–	–	> 100	–	> 100	–	> 100 µM	> 100	–	> 100	–	> 100	–	–	–	> 100	–	–	–
Cc1ccc(NC(=O)C(=O)C2C(=O)NC(=O)NC2=O)c(C)c1	–	–	–	> 100	–	> 100	–	28.2 µM	> 100	–	> 100	–	> 100	–	–	–	> 100	–	–	–
CCCCSC1CCSc2c1ccc1ccccc21 (centres undefined)	–	–	–	> 100	–	> 100	–	–	–	–	> 100	–	–	–	–	–	> 100	–	–	–
CSc1ccc(Cc2cc(C(C)(C)C)cc(C(C)(C)C)c2O)cc1	–	–	–	28.9	–	30.7	–	28.6 µM	29.7	–	30.4	–	22.4	–	–	–	26.7	–	–	–
CCCC(=O)Oc1ccc(/C=N/NC(N)=S)nc1	–	–	–	> 100	–	> 100	–	> 100 µM	> 100	–	> 100	–	> 100	–	–	–	> 100	–	–	–
[Mn+3].[O-][Cl+3]([O-])([O-])O.[O-]c1ccccc1C=NCCN1CC1.[O-]c1ccccc1C=NCCN1CC1	19.3	49.8	15.4	> 100	> 100	> 100	19.4	> 100 µM	> 100	27.2	> 100	–	–	20300	> 100	20.9	62.3	33.6	> 100	17100
OCC1CC2C=CCC(C2)C1 (centres undefined)	–	–	–	> 100	–	> 100	–	> 100 µM	> 100	–	> 100	–	> 100	–	–	–	> 100	–	–	–
C=C1C2CC(OC(C)=O)C3(C)C(c4ccoc4)OC(=O)[C@@H](O)[C@]13OC1C[C@H](OC(C)=O)C(C)(C)[C@H](C(O)C(=O)OC)[C@]12C (some centres undefined)	–	–	–	> 100	–	> 100	–	> 100 µM	> 100	–	> 100	–	> 100	–	–	–	> 100	–	–	–
Cc1cc(C)c([I+]c2c(C)cc(C)cc2C)c(C)c1	6.54	26.8	0.277	1.35	1.57	3.7	0.301	1.21 µM	–	0.749	2.11	–	–	406	2.19	–	–	0.795	2.68	–
